The results in this text go back to US9714266B2, “Estra-1,3,5(10),16-tetraene-3-carboxamides for inhibition of 17β-hydroxysteroid dehydrogenase (AKR1C3)” (priority 2013, dated 2017).

pIC50: −log10 of the molar value. Several values for one entry are separate records, joined by “and”; a condition that tells them apart may be missing. Equal values may be shown once.

AKR1C3, sequence (P42330 whole entry): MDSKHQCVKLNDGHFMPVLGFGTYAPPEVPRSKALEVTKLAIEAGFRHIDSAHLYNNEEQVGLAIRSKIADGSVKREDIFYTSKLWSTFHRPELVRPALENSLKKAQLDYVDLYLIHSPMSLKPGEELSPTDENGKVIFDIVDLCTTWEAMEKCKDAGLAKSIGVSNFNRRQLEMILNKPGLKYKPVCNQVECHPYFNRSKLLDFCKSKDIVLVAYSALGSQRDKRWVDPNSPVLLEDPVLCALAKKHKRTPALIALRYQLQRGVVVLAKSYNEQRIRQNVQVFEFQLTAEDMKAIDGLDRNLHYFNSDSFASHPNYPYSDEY

This experiment deals with AKR1C3 (Homo sapiens (Human), UniProt P42330). In words: AKR1C3 enzyme assay (coumberone reduction, fluorescence). The conditions noted are these: recombinant human AKR1C3, coumberone 0.3 μM, NADPH 10 μM; read-out: AKR1C3 enzyme inhibition IC50. It counts as biochemical. The method, then:
The AKR1C3-inhibitory action of the substances of this invention was measured in the AKR1C3 assay described in the paragraphs which follow. Essentially, the enzyme activity is measured by quantifying the coumberol formed from coumberone ([…]., and […]. AM. CHEM. SOC. 130, 14123-14128 (2008) […]., Bauman, D. R., Penning, T. M., and […]., Proc. Natl. Acad. Sci. USA 103, 13304-13309 (2006)). In this assay, the increase in the highly fluorescent coumberol can be determined by NADPH (nicotinamide adenine dinucleotide phosphate)-dependent reduction of the nonfluorescent coumberone by AKR1C3. […] NM_003739). This was expressed as the GST (glutathione S-transferase) fusion protein in E. coli and purified by means of glutathione-Sepharose affinity chromatography. The GST was removed by thrombin digestion with subsequent size exclusion chromatography (Dufort, I., Rheault, P., Huang, X F., Soucy, P., and Luu-The, V., Endocrinology 140, 568-574 (1999)). […] The concentration of the AKR1C3 was matched to the respective activity of the enzyme preparation and set such that the assay worked within the linear range. Typical concentrations were in the region of 1 nM. The reaction was stopped by adding 5 μl of a stop solution consisting of the inhibitor EM-1404 [F. Labrie et al. U.S. Pat. […] Subsequently, the fluorescence of coumberol was measured at 520 nm (excitation at 380 nm) with a suitable measuring instrument (Pherastar from BMG Labtechnologies).
By pIC50 is commonly meant −log10 of the IC50, conventionally taken in molar units. On to `CNS(=O)(=O)CCNC(=O)c1ccc2c(c1)CC[C@@H]1[C@@H]2CC[C@]2(C)C(c3cncc(C(F)(F)F)c3)=CC[C@@H]12` [Example 25, N-[2-(N-methylsulphamoyl)ethyl]-17-[5-(trifluoromethyl)pyridin-3-yl]oestra-1,3,5(10),16-tetraene-3-carboxamide], for which the pIC50 is 7.32.

For the compound `CCNC(=O)c1ccc2c(c1)CC[C@@H]1[C@@H]2CC[C@]2(C)C(c3cncc(F)c3)=CC[C@@H]12` [Example 39, N-ethyl-17-(5-fluoropyridin-3-yl)oestra-1,3,5(10),16-tetraene-3-carboxamide], the pIC50 was 8.30.

In the case of `CC[C@@H](CO)NC(=O)c1ccc2c(c1)CC[C@@H]1[C@@H]2CC[C@]2(C)C(c3cncc(F)c3)=CC[C@@H]12` [Example 15, 17-(5-fluoropyridin-3-yl)-N—[(S)-1-(hydroxymethyl)propyl]oestra-1,3,5(10),16-tetraene-3-carboxamide], the pIC50 was 7.60.

With `CNC(=O)CCNC(=O)c1ccc2c(c1)CC[C@@H]1[C@@H]2CC[C@]2(C)C(c3cncc(F)c3)=CC[C@@H]12` [Example 27, 17-(5-fluoropyridin-3-yl)-N-[3-(methylamino)-3-oxopropyl]oestra-1,3,5(10),16-tetraene-3-carboxamide], the pIC50 is 8.30.

Regarding `CC(C)(CO)CNC(=O)c1ccc2c(c1)CC[C@@H]1[C@@H]2CC[C@]2(C)C(c3cncc(F)c3)=CC[C@@H]12` [Example 10, 17-(5-fluoropyridin-3-yl)-N-[2-(hydroxymethyl)-2-methylpropyl]oestra-1,3,5(10),16-tetraene-3-carboxamide], the pIC50 is 7.01 and 7.34.

For `C[C@]12CC[C@@H]3c4ccc(C(=O)N[C@H]5CCC[C@@H]5O)cc4CC[C@H]3[C@@H]1CC=C2c1cncc(F)c1` [Example 11, 17-(5-fluoropyridin-3-yl)-N-[(1S,2S)-2-hydroxycyclopentyl]oestra-1,3,5(10),16-tetraene-3-carboxamide], the pIC50 is 7.47 and 7.70.

For `C[C@]12CC[C@@H]3c4ccc(C(=O)N5CCC[C@H]5C(N)=O)cc4CC[C@H]3[C@@H]1CC=C2c1cncc(F)c1` [Example 30, 1-{[17-(5-fluoropyridin-3-yl)oestra-1,3,5(10),16-tetraen-3-yl]carbonyl}-L-prolinamide], the pIC50 was 7.92.

Take `COCCNC(=O)c1ccc2c(c1)CC[C@@H]1[C@@H]2CC[C@]2(C)C(c3cncc(F)c3)=CC[C@@H]12` [Example 41, 17-(5-fluoropyridin-3-yl)-N-(2-methoxyethyl)oestra-1,3,5(10),16-tetraene-3-carboxamide]: the pIC50 was 8.10.

In the case of `C[C@]12CC[C@@H]3c4ccc(C(N)=O)cc4CC[C@H]3[C@@H]1CC=C2c1cncc(C#N)c1` [Example 6, 17-(5-cyanopyridin-3-yl)oestra-1,3,5(10),16-tetraene-3-carboxamide], the pIC50 is 6.46.

For `CC(C)(CNC(=O)c1ccc2c(c1)CC[C@@H]1[C@@H]2CC[C@]2(C)C(c3cncc(F)c3)=CC[C@@H]12)NS(C)(=O)=O` [Example 31, 17-(5-fluoropyridin-3-yl)-N-{2-methyl-2-[(methylsulphonyl)amino]propyl}oestra-1,3,5(10),16-tetraene-3-carboxamide], the pIC50 was 7.72.

In the case of `C[C@]12CC[C@@H]3c4ccc(C(=O)NC[C@@H](O)CO)cc4CC[C@H]3[C@@H]1CC=C2c1cncc(F)c1` [Example 36, N—[(R)-2,3-dihydroxypropyl]-17-(5-fluoropyridin-3-yl)oestra-1,3,5(10),16-tetraene-3-carboxamide], the pIC50 was 8.22.

As to `CC(C)N(CCO)C(=O)c1ccc2c(c1)CC[C@@H]1[C@@H]2CC[C@]2(C)C(c3cncc(F)c3)=CC[C@@H]12` [Example 19, 17-(5-fluoropyridin-3-yl)-N-(2-hydroxyethyl)-N-isopropyloestra-1,3,5(10),16-tetraene-3-carboxamide], the pIC50 is 7.22 and 7.32.
